From ChEMBL document CHEMBL4813985, “Lead optimization generates selenium-containing miconazole CYP51 inhibitors with improved pharmacological profile for the treatment of fungal infections” (Eur J Med Chem, 2021)
Converted amounts (≈) assume the structure as drawn.

Columns and labels:
Type in all cases: functional
Candida albicans [1] = test: Antifungal activity against Candida albicans ATCC SC5314 measured after 24 hrs by broth microdilution assay
Candida parapsilosis = test: Antifungal activity against Candida parapsilosis ATCC 22019 measured after 24 hrs by broth microdilution assay; settings: Lodderomyces parapsilosis
Pichia kudriavzevii = test: Antifungal activity against Candida krusei AS2.1045 measured after 24 hrs by broth microdilution assay
Candida albicans [2] = test: Potency index, ratio of fluconazole MIC to test compound MIC for Candida albicans CPCC400616 measured after 24 hrs by broth microdilution assay
Candida albicans [3] = test: Antifungal activity against fluconazole-resistant Candida albicans 17# assessed as inhibition of microbial growth after 24 hrs by broth microdilution method
Nakaseomyces glabratus = test: Antifungal activity against Candida glabrata measured after 24 hrs by broth microdilution assay
Candida albicans [4] = test: Antifungal activity against Candida albicans CPCC400616 measured after 24 hrs by broth microdilution assay
Candida albicans [5] = test: Antifungal activity against fluconazole-resistant Candida albicans 632 assessed as inhibition of microbial growth after 24 hrs by broth microdilution method
Candida albicans [6] = test: Antifungal activity against fluconazole-resistant Candida albicans CaR assessed as inhibition of microbial growth after 24 hrs by broth microdilution method
Aspergillus fumigatus = test: Antifungal activity against Aspergillus fumigatus CMGCC3.7795 measured after 72 hrs by broth microdilution assay
[Candida] zeylanoides = Antifungal activity against Candida zeylanoides CMGCC2.3739 measured after 24 hrs by broth microdilution assay; settings: Dujonia zeylanoides
Cryptococcus neoformans = test: Antifungal activity against Cryptococcus neoformans CMGCC2.3161 measured after 72 hrs by broth microdilution assay
Candida albicans [7] = test: Antifungal activity against fluconazole-resistant Candida albicans 901 assessed as inhibition of microbial growth after 24 hrs by broth microdilution method
Candida albicans [8] = test: Antifungal activity against fluconazole-resistant Candida albicans 904 assessed as inhibition of microbial growth after 24 hrs by broth microdilution method

| SMILES | MIC (Candida albicans [1]) [µg/mL] | MIC (Candida parapsilosis) [µg/mL] | MIC (Pichia kudriavzevii) [µg/mL] | Ratio (Candida albicans [2]) | MIC (Candida albicans [3]) [µg/mL] | MIC (Nakaseomyces glabratus) [µg/mL] | MIC (Candida albicans [4]) [µg/mL] | MIC (Candida albicans [5]) [µg/mL] | MIC (Candida albicans [6]) [µg/mL] | MIC (Aspergillus fumigatus) [µg/mL] | MIC ([Candida] zeylanoides) [µg/mL] | MIC (Cryptococcus neoformans) [µg/mL] | MIC (Candida albicans [7]) [µg/mL] | MIC (Candida albicans [8]) [µg/mL] |
| --- | --- | --- | --- | --- | --- | --- | --- | --- | --- | --- | --- | --- | --- | --- |
| COc1cccc([Se]C(Cn2ccnc2)c2ccc(Cl)cc2Cl)c1 (stereo not drawn) | 0.03 (≈ 0.0704 µM) | 0.5 (≈ 1.17 µM) | 0.06 (≈ 0.141 µM) | 8 | 2 | 0.5 (≈ 1.17 µM) | 0.25 (≈ 0.587 µM) | 16 | 8 | 8 (≈ 18.8 µM) | 0.5 (≈ 1.17 µM) | 0.25 (≈ 0.587 µM) | 16 | 4 |
| Cc1cc(C)cc([Se]C(Cn2ccnc2)c2ccc(F)cc2F)c1 (stereo not drawn) | 0.03 (≈ 0.0767 µM) | 0.13 (≈ 0.332 µM) | 0.13 (≈ 0.332 µM) | 8 | 4 | 0.5 (≈ 1.28 µM) | 0.13 (≈ 0.332 µM) | 8 | 2 | 8 (≈ 20.4 µM) | 0.5 (≈ 1.28 µM) | 0.5 (≈ 1.28 µM) | 4 | 8 |
| Fc1ccc(C(Cn2ccnc2)[Se]c2ccccc2)c(F)c1 (stereo not drawn) | 0.02 (≈ 0.0551 µM) | 0.06 (≈ 0.165 µM) | 0.25 (≈ 0.688 µM) | 8 | 4 | 1 (≈ 2.75 µM) | 0.5 (≈ 1.38 µM) | 2 | 1 | 2 (≈ 5.51 µM) | 0.25 (≈ 0.688 µM) | 0.5 (≈ 1.38 µM) | 2 | 1 |
| COc1ccccc1[Se]C(Cn1ccnc1)c1ccc(F)cc1F (stereo not drawn) | 0.02 (≈ 0.0509 µM) | 0.13 (≈ 0.331 µM) | 0.5 (≈ 1.27 µM) | 8 | 8 | 0.25 (≈ 0.636 µM) | 1 (≈ 2.54 µM) | 16 | 8 | 8 (≈ 20.3 µM) | 0.13 (≈ 0.331 µM) | 1 (≈ 2.54 µM) | 4 | 8 |
| Cc1cccc(C)c1[Se]C(Cn1ccnc1)c1ccc(Cl)cc1Cl (stereo not drawn) | 0.06 (≈ 0.141 µM) | 0.5 (≈ 1.18 µM) | 2 (≈ 4.71 µM) | 8 | 4 | 0.13 (≈ 0.306 µM) | 0.13 (≈ 0.306 µM) | 8 | 4 | 8 (≈ 18.9 µM) | 4 (≈ 9.43 µM) | 0.5 (≈ 1.18 µM) | 16 | 8 |
| Cc1cc(C)cc([Se]C(Cn2ccnc2)c2ccc(Cl)cc2Cl)c1 (stereo not drawn) | 0.06 (≈ 0.141 µM) | 0.5 (≈ 1.18 µM) | 0.5 (≈ 1.18 µM) | 8 | 16 | 0.25 (≈ 0.589 µM) | 0.5 (≈ 1.18 µM) | 16 | 8 | 8 (≈ 18.9 µM) | 0.5 (≈ 1.18 µM) | 0.5 (≈ 1.18 µM) | 4 | 16 |
| Cc1cccc([Se]C(Cn2ccnc2)c2ccc(F)cc2F)c1 (stereo not drawn) | 0.03 (≈ 0.0795 µM) | 0.25 (≈ 0.663 µM) | 0.06 (≈ 0.159 µM) | 8 | 8 | 1 (≈ 2.65 µM) | 0.25 (≈ 0.663 µM) | 0.5 | 4 | 8 (≈ 21.2 µM) | 0.5 (≈ 1.33 µM) | 0.25 (≈ 0.663 µM) | 4 | 1 |
| COc1ccc([Se]C(Cn2ccnc2)c2ccc(Cl)cc2Cl)cc1 (stereo not drawn) | 0.03 (≈ 0.0704 µM) | 0.25 (≈ 0.587 µM) | 0.02 (≈ 0.0469 µM) | 8 | 2 | 0.25 (≈ 0.587 µM) | 0.13 (≈ 0.305 µM) | 2 | 8 | 16 (≈ 37.5 µM) | 0.5 (≈ 1.17 µM) | 0.25 (≈ 0.587 µM) | 8 | 8 |
| Fc1ccc([Se]C(Cn2ccnc2)c2ccc(Cl)cc2Cl)cc1 (stereo not drawn) | 0.03 (≈ 0.0724 µM) | 0.25 (≈ 0.604 µM) | 0.02 (≈ 0.0483 µM) | 8 | 2 | 0.5 (≈ 1.21 µM) | 0.25 (≈ 0.604 µM) | 1 | 8 | 8 (≈ 19.3 µM) | 0.25 (≈ 0.604 µM) | 0.03 (≈ 0.0724 µM) | 1 | 1 |
| COc1ccccc1[Se]C(Cn1ccnc1)c1ccc(Cl)cc1Cl (stereo not drawn) | 0.03 (≈ 0.0704 µM) | 0.13 (≈ 0.305 µM) | 0.13 (≈ 0.305 µM) | 8 | 2 | 0.5 (≈ 1.17 µM) | 0.06 (≈ 0.141 µM) | 2 | 2 | 8 (≈ 18.8 µM) | 0.25 (≈ 0.587 µM) | 0.5 (≈ 1.17 µM) | 1 | 8 |
| Fc1cccc([Se]C(Cn2ccnc2)c2ccc(F)cc2F)c1 (stereo not drawn) | 0.03 (≈ 0.0787 µM) | 0.25 (≈ 0.656 µM) | 0.13 (≈ 0.341 µM) | 8 | 4 | 1 (≈ 2.62 µM) | 0.5 (≈ 1.31 µM) | 1 | 4 | 8 (≈ 21 µM) | 0.5 (≈ 1.31 µM) | 0.5 (≈ 1.31 µM) | 2 | 2 |
| Cc1cccc([Se]C(Cn2ccnc2)c2ccc(Cl)cc2Cl)c1 (stereo not drawn) | 0.03 (≈ 0.0731 µM) | 0.25 (≈ 0.609 µM) | 0.06 (≈ 0.146 µM) | 8 | 1 | 1 (≈ 2.44 µM) | 0.25 (≈ 0.609 µM) | 1 | 1 | 4 (≈ 9.75 µM) | 0.25 (≈ 0.609 µM) | 0.25 (≈ 0.609 µM) | 1 | 1 |
| COc1ccc([Se]C(Cn2ccnc2)c2ccc(F)cc2F)cc1 (stereo not drawn) | 0.03 (≈ 0.0763 µM) | 0.25 (≈ 0.636 µM) | 0.5 (≈ 1.27 µM) | 8 | 16 | 0.5 (≈ 1.27 µM) | 1 (≈ 2.54 µM) | 16 | 2 | 8 (≈ 20.3 µM) | 0.25 (≈ 0.636 µM) | 0.5 (≈ 1.27 µM) | 2 | 8 |
| COc1cccc([Se]C(Cn2ccnc2)c2ccc(F)cc2F)c1 (stereo not drawn) | 0.13 (≈ 0.331 µM) | 0.25 (≈ 0.636 µM) | 0.13 (≈ 0.331 µM) | 8 | 4 | 0.5 (≈ 1.27 µM) | 0.5 (≈ 1.27 µM) | 1 | 2 | 4 (≈ 10.2 µM) | 1 (≈ 2.54 µM) | 0.5 (≈ 1.27 µM) | 4 | 8 |
| Cc1ccc(C)c([Se]C(Cn2ccnc2)c2ccc(F)cc2F)c1 (stereo not drawn) | 0.06 (≈ 0.153 µM) | 0.13 (≈ 0.332 µM) | 0.13 (≈ 0.332 µM) | 8 | 4 | 0.5 (≈ 1.28 µM) | 0.25 (≈ 0.639 µM) | 2 | 8 | 8 (≈ 20.4 µM) | 0.5 (≈ 1.28 µM) | 0.25 (≈ 0.639 µM) | 4 | 8 |
| CCc1ccc([Se]C(Cn2ccnc2)c2ccc(F)cc2F)cc1 (stereo not drawn) | 0.13 (≈ 0.332 µM) | 0.13 (≈ 0.332 µM) | 0.13 (≈ 0.332 µM) | 8 | 4 | 0.5 (≈ 1.28 µM) | 0.13 (≈ 0.332 µM) | 1 | 1 | 8 (≈ 20.4 µM) | 0.5 (≈ 1.28 µM) | 0.03 (≈ 0.0767 µM) | 2 | 8 |
| Clc1ccc(C(Cn2ccnc2)[Se]c2ccccc2)c(Cl)c1 (stereo not drawn) | 0.13 (≈ 0.328 µM) | 0.25 (≈ 0.631 µM) | 0.13 (≈ 0.328 µM) | 8 | 1 | 1 (≈ 2.52 µM) | 0.25 (≈ 0.631 µM) | 1 | 1 | 8 (≈ 20.2 µM) | 0.25 (≈ 0.631 µM) | 0.13 (≈ 0.328 µM) | 2 | 2 |
| CCc1ccc([Se]C(Cn2ccnc2)c2ccc(Cl)cc2Cl)cc1 (stereo not drawn) | 0.03 (≈ 0.0707 µM) | 1 (≈ 2.36 µM) | 0.06 (≈ 0.141 µM) | 8 | 8 | 0.13 (≈ 0.306 µM) | 0.5 (≈ 1.18 µM) | 4 | 8 | 4 (≈ 9.43 µM) | 0.5 (≈ 1.18 µM) | 0.5 (≈ 1.18 µM) | 4 | 15 |
| Clc1ccc(C(Cn2cncn2)[Se]Cc2ccccc2Cl)c(Cl)c1 (stereo not drawn) | 0.13 (≈ 0.292 µM) | 8 (≈ 18 µM) | 0.06 (≈ 0.135 µM) | – | 8 | 4 (≈ 8.98 µM) | 0.03 (≈ 0.0673 µM) | > 128 | > 128 | 16 (≈ 35.9 µM) | 16 (≈ 35.9 µM) | 2 (≈ 4.49 µM) | > 128 | 32 |
| Cc1ccccc1[Se]C(Cn1ccnc1)c1ccc(Cl)cc1Cl (stereo not drawn) | 0.03 (≈ 0.0731 µM) | 0.5 (≈ 1.22 µM) | 0.13 (≈ 0.317 µM) | 8 | 2 | 0.25 (≈ 0.609 µM) | 0.13 (≈ 0.317 µM) | 0.5 | 4 | 16 (≈ 39 µM) | 0.5 (≈ 1.22 µM) | 0.5 (≈ 1.22 µM) | 0.5 | 0.5 |
| Fc1ccc(C(Cn2cncn2)[Se]Cc2ccccc2)c(F)c1 (stereo not drawn) | 0.06 (≈ 0.159 µM) | 16 (≈ 42.3 µM) | 4 (≈ 10.6 µM) | – | 32 | 2 (≈ 5.29 µM) | 0.5 (≈ 1.32 µM) | > 128 | 128 | 8 (≈ 21.1 µM) | 8 (≈ 21.1 µM) | 4 (≈ 10.6 µM) | 16 | 16 |
| Fc1ccc(C(Cn2cncn2)[Se]Cc2ccc(Cl)cc2Cl)c(F)c1 (stereo not drawn) | 0.06 (≈ 0.134 µM) | > 128 | 128 (≈ 286 µM) | – | 64 | 2 (≈ 4.47 µM) | 0.13 (≈ 0.291 µM) | > 128 | > 128 | 16 (≈ 35.8 µM) | 64 (≈ 143 µM) | 4 (≈ 8.95 µM) | > 128 | > 128 |
| Fc1ccc(C[Se]C(Cn2cncn2)c2ccc(F)cc2F)cc1 (stereo not drawn) | 0.25 (≈ 0.631 µM) | 32 (≈ 80.8 µM) | 8 (≈ 20.2 µM) | – | 32 | 2 (≈ 5.05 µM) | 1 (≈ 2.52 µM) | > 128 | 128 | 8 (≈ 20.2 µM) | 4 (≈ 10.1 µM) | 0.5 (≈ 1.26 µM) | > 128 | 64 |
